Measurements taken from patent US20250122155A1, “NOVEL INDOLE DERIVATIVE, PHARMACEUTICAL COMPOSITION COMPRISING SAME, AND USE THEREOF” (MITOIMMUNE THERAPEUTICS INC., priority 2021, published 2025).

Tests used:
[1] = system: H9C2 cells; test: Protective effect on heart cells against t-BHP (LDH release); assay type: cell-based; conditions: H9C2, t-BHP 400 μM, 2 hours, read-out: EC50 (μM), Cell Protection Effect against t-BHP in Heart Cells
How it was run: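 H9C2 cells (1.5×10^4/well, cultured 24 h) were pretreated 15–20 min with compound at 0.01–30 μM final, then exposed 2 h to 400 μM t-BHP. LDH in supernatant was measured colorimetrically at 490 nm after 30 min room-temperature reaction; EC50 derived from protection.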

[2] = system: NIH/3T3 cells; test: Cell death protective effect in fibroblasts against Erastin, glutamate and RSL3 (LDH); assay type: cell-based, mouse; conditions: 24 hours
Protocol: (§1) In order to identify the protective effect on fibroblasts, NIH/3T3 cells were divided into 96-well plates by 8×10^3 and cultured for 18 to 24 hours. The compounds of Examples were diluted to final concentrations of 0.1 and 1 μM, treated in each well, and incubated for 15 to 20 minutes. Erastin, glutamate, and RSL3 were treated to have final concentrations of 3 μM, 30 mM, and 3 μM, respectively, and cultured for 24 hours. In order to identify the protective effect of each compound, the degree of LDH extracellular secretion was measured using cytotoxicity LDH assay kit [Dojindo; CK12]. Briefly, at the time when the treatment of the cells with Erastin, glutamate, and RSL3 for 24 hours is completed, the supernatants containing the cells are taken by 70 μL and transferred to a new 96-well plate. The assay buffer included in the kit is added in an amount of 70 μL/well (the same amount as the sample) thereto, and then the plate is wrapped with a foil and the reaction is performed at room temperature for 15 minutes. After observing the changed color of the sample, the stop solution was added in an amount of 35 μL/well thereto, and then the 00 inhibition value was calculated by measuring the absorbance value at a wavelength of 490 nm using an iD3 spectrophotometer.

[3] = system: H9C2 cells; test: Cell death protective effect in cardiac myocytes against Erastin, glutamate and RSL3 (LDH); assay type: cell-based, rat; conditions: 24 hours
Protocol: as §1, with “on cardiac cells, H9C2” for “on fibroblasts, NIH/3T3”, “by 1×10^4” for “by 8×10^3”, “of 1” for “of 3”, “μM, 25” for “μM, 30”, “and 0.5” for “and 3”, “minutes.” for “minutes. After observing the changed color of the sample, the stop solution was added in an amount of 35 μL/well thereto, and then the 00 inhibition value was calculated by measuring the absorbance value at a wavelength of 490 nm using an iD3 spectrophotometer.”

[4] = system: NRK-49F cells; test: Cell death protective effect in renal fibroblasts against Erastin, glutamate and RSL3 (LDH); assay type: cell-based, rat; conditions: 24 hours
Protocol: In order to identify the protective effect on renal fibroblasts, NRK-49F cells were divided into 96-well plates by 1×10^4 and cultured for 18 to 24 hours. The compounds of Examples were diluted to final concentrations of 0.1 and 1 μM, treated in each well, and incubated for 15 to 20 minutes. Erastin, glutamate, and RSL3 were treated to have final concentrations of 3 μM, 75 mM, and 3 μM, respectively, and cultured for 24 hours. In order to identify the protective effect of each compound, the degree of LDH extracellular secretion was measured using cytotoxicity LDH assay kit [Dojindo; CK12]. Briefly, at the time when the treatment of the cells with Erastin, glutamate, and RSL3 for 24 hours is completed, the supernatants containing the cells are taken by 70 μl and transferred to a new 96-well plate. The assay buffer included in the kit is added in an amount of 70 μL/well (the same amount as the sample) thereto, and then the plate is wrapped with a foil and the reaction is performed at room temperature for 15 minutes.

[5] = system: MLE-12 cells; test: Cell death protective effect in lung epithelial cells against RSL3 (LDH); assay type: cell-based, rat; conditions: MLE-12, RSL3 1.0 μM, 24 hours
Protocol: In order to identify the protective effect on lung epithelial cells, MLE-12 cells were divided into 96-well plates by 5×10^3 and cultured for 18 to 24 hours. The compounds of Examples were diluted to final concentrations of 0.1 and 1.0 μM, treated in each well, and incubated for 20 minutes. RSL3 was treated to have final concentrations of 1.0 μM, respectively, and cultured for 24 hours. In order to identify the protective effect of each compound, the degree of LDH extracellular secretion was measured using cytotoxicity LDH assay kit [Dojindo; CK12]. Briefly, at the time when the treatment of the cells with RSL3 for 24 hours is completed, the supernatants containing the cells are taken by 70 μL and transferred to a new 96-well plate. The assay buffer included in the kit is added in an amount of 70 μL/well (the same amount as the sample) thereto, and then the plate is wrapped with a foil and the reaction is performed at room temperature for 15 minutes.

[6] = NIH/3T3, Erastin 3 μM, compound 0.1 μM
[7] = NIH/3T3, Erastin 3 μM, compound 1.0 μM
[8] = NIH/3T3, Glutamate 30 mM, compound 0.1 μM
[9] = NIH/3T3, Glutamate 30 mM, compound 1.0 μM
[10] = NIH/3T3, RSL3 3 μM, compound 0.1 μM
[11] = NIH/3T3, RSL3 3 μM, compound 1.0 μM
[12] = H9C2, Erastin 1 μM, compound 0.1 μM
[13] = H9C2, Erastin 1 μM, compound 1.0 μM
[14] = H9C2, Glutamate 25 mM, compound 0.1 μM
[15] = H9C2, Glutamate 25 mM, compound 1.0 μM
[16] = H9C2, RSL3 0.5 μM, compound 0.1 μM
[17] = H9C2, RSL3 0.5 μM, compound 1.0 μM
[18] = Glutamate 75 mM, compound 0.1 μM
[19] = Glutamate 75 mM, compound 1.0 μM

| SMILES | inhibition (%) [2, 6] | inhibition (%) [2, 7] | inhibition (%) [2, 8] | inhibition (%) [2, 9] | inhibition (%) [2, 10] | inhibition (%) [2, 11] | inhibition (%) [3, 12] | inhibition (%) [3, 13] | inhibition (%) [3, 14] | inhibition (%) [3, 15] | inhibition (%) [3, 16] | inhibition (%) [3, 17] | inhibition (%) ([4]; Erastin 3 μM, compound 0.1 μM) | inhibition (%) ([4]; Erastin 3 μM, compound 1.0 μM) | inhibition (%) [4, 18] | inhibition (%) [4, 19] | inhibition (%) ([4]; RSL3 3 μM, compound 0.1 μM) | inhibition (%) ([4]; RSL3 3 μM, compound 1.0 μM) | inhibition (%) ([5]; compound 0.1 μM) | inhibition (%) ([5]; compound 1.0 μM) | also measured |
| --- | --- | --- | --- | --- | --- | --- | --- | --- | --- | --- | --- | --- | --- | --- | --- | --- | --- | --- | --- | --- | --- |
| COCCOCc1cc(NC2CCOCC2)c2[nH]c(-c3ccccc3)cc2c1 [Example 1, 5-(2-methoxyethoxymethyl)-2-phenyl-N-tetrahydropyran-4-yl-1H-indol-7-amine] | 99% | 100% | 100% | 100% | 100% | 100% | 100% | 100% | 96% | 97% | 100% | 98% | 99% | 99% | 100% | 100% | 99% | 99% | 100% | 100% | EC50 [1]: ≤ 0.3 µM |
| COCCOCc1cc(NCC2CCOCC2)c2[nH]c(-c3ccccc3)cc2c1 [Example 4, 5-2(methoxyethoxymethyl)-2-phenyl-N-(tetrahydropyran-4-ylmethyl)-1H-indol-7-amine] | 99% | 99% | 100% | 100% | 100% | 100% | 100% | 100% | 97% | 96% | 97% | 96% | 99% | 99% | 99% | 100% | 98% | 99% | 90% | 91% | EC50 [1]: ≤ 0.3 µM |
| COCCOCc1cc(NC2CCN(C(C)=O)CC2)c2[nH]c(-c3ccccc3)cc2c1 [Example 30, 1-[4-[[5-(2-methoxyethoxymethyl)-2-phenyl-1H-indol-7-yl]amino]piperidyl]-1-ethanone] | 6% | 100% | 100% | 100% | 100% | 100% | 0% | 100% | 90% | 98% | 0% | 96% | 98% | 98% | 97% | 100% | 52% | 98% | 84% | 95% | EC50 [1]: ≤ 0.3 µM |
| CCOCCOCc1cc(NC2CCCC2)c2[nH]c(-c3ccccc3)cc2c1 [Example 36, N-cyclopentyl-5-(2-ethoxyethoxymethyl)-2-phenyl-1H-indol-7-amine] | 99% | 100% | 100% | 100% | 100% | 100% | 100% | 100% | 99% | 97% | 98% | 99% | 99% | 99% | 100% | 100% | 98% | 99% | 89% | 94% | EC50 [1]: ≤ 0.3 µM |
| COCCOCCOCc1cc(NC2CCCC2)c2[nH]c(-c3ccccc3)cc2c1 [Example 39, N-cyclopentyl-5-[2-(2-methoxyethoxy)ethoxymethyl]-2-phenyl-1H-indol-7-amine] | 99% | 100% | 99% | 100% | 100% | 100% | 100% | 100% | 96% | 96% | 96% | 96% | 99% | 98% | 100% | 100% | 98% | 99% | 89% | 89% | EC50 [1]: ≤ 0.3 µM |
| COCCOCc1cc(NCc2ccncc2)c2[nH]c(-c3ccccc3)cc2c1 [Example 45, 5-(2-methoxyethoxymethyl)-2-phenyl-N-(4-pyridylmethyl)-1H-indol-7-amine] | 100% | 100% | 0% | 97% | 0% | 100% | 100% | 100% | 98% | 96% | 99% | 97% | 99% | 98% | 100% | 98% | 99% | 98% | 98% | 100% | EC50 [1]: ≤ 0.3 µM |
| CCOC(=O)c1ccc(NC2CCCCC2)c(N)c1 [Ferrostatin-1, reference compound] | 17% | 99% | 97% | 97% | 100% | 100% | 100% | 100% | 98% | 97% | 96% | 96% | 99% | 98% | 95% | 100% | 94% | 99% | 100% | 100% | – |
